Data taken from patent US11613547B2 (priority 2019, dated 2023).
Values joined by “and” are separate entries in the source; they are usually repeats but may differ in a detail not shown here. Equal values may be shown once. Read-outs that look alike come from different tables or passages of the source.

Tests used:
mMOR [1] = target: T1, mMOR (Mus musculus, UniProt P42866); assay: Radioligand competition binding ([125I]IBNtxA), CHO membranes, mMOR; settings: vs 125IBNtxA (0.1 nM), mean ± SEM
T1 construct: expressed in transfected cells

mKOR [2] = target: T2, mKOR (Mus musculus, UniProt P33534); assay: Radioligand competition binding ([125I]IBNtxA), CHO membranes, mKOR; settings: vs 125IBNtxA (0.1 nM), mean ± SEM
T2 construct: expressed in transfected cells

mDOR [3] = target: T3, mDOR (Mus musculus, UniProt P32300); assay: Radioligand competition binding ([125I]IBNtxA), CHO membranes, mDOR; settings: vs 125IBNtxA (0.1 nM), CHO membranes, mean ± SEM
T3 construct: expressed in transfected cells

mMOR [4] = target: T1, mMOR; assay: [35S]GTPγS functional assay, mMOR; type: biochemical; settings: [35S]GTPγS; for EC50: nM ± SEM; for mMOR Emax: relative to DAMGO
mKOR [5] = target: T2, mKOR; assay: [35S]GTPγS functional assay, mKOR; type: biochemical; settings: [35S]GTPγS; for EC50: nM ± SEM; for mKOR Emax: relative to U50,488H
mDOR [6] = target: T3, mDOR; assay: [35S]GTPγS functional assay, mDOR; type: biochemical; settings: [35S]GTPγS; for EC50: nM ± SEM; for mDOR Emax: relative to DPDPE
hMOR [7] = target: T4, hMOR (Homo sapiens, UniProt P35372); assay: cell-based; type: cell-based; settings: for EC50: read-out: Gi EC50 hMOR
T4 construct: expressed in transfected cells; host or cells: HEK 293T (ATCC CRL-11268), transient

hMOR [8] = target: T4, hMOR; assay: Tango β-arrestin recruitment assay, hMOR; type: cell-based; settings: Tango; for Arrestin Emax hMOR: normalized to Emax of DAMGO
hKOR [9] = target: T5, hKOR (Homo sapiens, UniProt P41145); assay: cAMP inhibition assay (GloSensor, HEK 293T), hKOR; type: cell-based; settings: for Bias factor toward G protein, hKOR: cAMP inhibition vs Tango, against U50,488H as control; for Gi Emax hKOR: normalized to Emax of U50,488H
T5 construct: expressed in transfected cells; host or cells: HEK 293T (ATCC CRL-11268), transient

hKOR [10] = target: T5, hKOR; assay: Tango β-arrestin recruitment assay, hKOR; type: cell-based; settings: Tango; for Arrestin pEC50±SEM hKOR / EC50: WT-hKOR; for Arrestin Emax hKOR: normalized to Emax of U50,488H
[11] = target: T6, mouse mu opioid receptor (mMOR) (Mus musculus, UniProt P42866); assay: cell-based; type: cell-based; settings: for EC50: read-out: Gi EC50 mMOR
T6 construct: expressed in transfected cells; host or cells: HEK-293T, transient (PEI), with BRET sensor cDNAs

[12] = target: T6, mouse mu opioid receptor (mMOR); assay: cell-based; type: cell-based; settings: for EC50: read-out: Arrestin EC50 mMOR
[13] = target: T7, rat kappa opioid receptor (rKOR) (Rattus norvegicus, UniProt P34975); assay: BRET assay, G-protein activation, rKOR; type: cell-based; settings: for Gi pEC50±SEM rKOR / Gi Emax rKOR / EC50: BRET; for Bias factor toward G-protein, rKOR: BRET assays, against U50,488H as control; for Gi Emax rKOR: normalized to Emax of U50,488H; for EC50: read-out: Gi EC50 rKOR
T7 construct: expressed in transfected cells; host or cells: HEK-293T, transient (PEI), with BRET sensor cDNAs

[14] = target: T7, rat kappa opioid receptor (rKOR); assay: BRET assay, arrestin recruitment, rKOR; type: cell-based; settings: BRET; for Arrestin Emax rKOR: normalized to Emax of U50,488H
[15] = target: T8, mouse delta opioid receptor (mDOR) (Mus musculus, UniProt P32300); assay: BRET assay, G-protein activation, mDOR; type: cell-based; settings: mDOR, BRET; for G-Protein activation Emax % ± SEM: normalized to DPDPE
T8 construct: expressed in transfected cells; host or cells: HEK-293T, transient (PEI), with BRET sensor cDNAs

[16] = target: T8, mouse delta opioid receptor (mDOR); assay: BRET assay, arrestin recruitment, mDOR; type: cell-based; settings: mDOR, BRET; for Arrestin recruitment Emax % ± SEM: normalized to DPDPE
hDOR [17] = target: T9, hDOR (Homo sapiens, UniProt P41143); assay: cAMP inhibition assay, hDOR; type: cell-based; set-up: expressed in transfected cells; settings: hDOR; for cAMP inhibition Emax % ± SEM: normalized to DPDPE or DADLE
hDOR [18] = target: T9, hDOR; assay: Tango β-arrestin recruitment assay, hDOR; type: cell-based; set-up: expressed in transfected cells; host or cells: HTLA cells expressing TEV fused-beta-Arrestin2; settings: hDOR, Tango; for Arrestin recruitment Emax % ± SEM: normalized to DPDPE or DADLE

## O=C(N[C@@H]1CC[C@@]2(O)[C@H]3Cc4ccc(O)c5c4[C@@]2(CCN3CC2CC2)[C@H]1O5)c1cccc(I)c1 [IBNtxA, reference compound]
mMOR [1]
  Ki: 0.11 ± 0.02 nM
mKOR [2]
  Ki: 0.03 ± 0.001 nM
mDOR [3]
  Ki: 0.24 ± 0.05 nM
mMOR [4]
  EC50: 0.49 ± 0.12 nM
  mMOR Emax: 101 ± 3%
mKOR [5]
  EC50: 0.22 ± 0.02 nM
  mKOR Emax: 102 ± 4%
mDOR [6]
  EC50: 4.08 ± 0.67 nM
  mDOR Emax: 95 ± 2%
hMOR [7]
  Bias factor toward G protein, hMOR: 23
  Gi Emax hMOR: 95±2
  Gi pEC50±SEM hMOR: 10.2±0.006
  EC50: 0.07 nM
hMOR [8]
  Arrestin pEC50±SEM hMOR: 8.2±0.002
  EC50: 5.86 nM
  Arrestin Emax hMOR: 29±0.02
hKOR [9]
  Bias factor toward G protein, hKOR: 0.2
hKOR [9]; cAMP inhibition
  Gi Emax hKOR: 106±0.7
hKOR [10]
  Arrestin pEC50±SEM hKOR: 10.9±0.07
  EC50: 0.013 nM
  Arrestin Emax hKOR: 109±1.8
[11]
  Bias factor toward G-protein, mMOR: 404
  Gi Emax mMOR: 59±2.2
  Gi pEC50±SEM mMOR: 10.3±0.02
  EC50: 0.054 nM
[12]
  Arrestin Emax mMOR: 75±13.9
  Arrestin pEC50±SEM mMOR: 4.9±0.3
  EC50: 11300 nM
[13]
  Gi pEC50±SEM rKOR: 10.2±0.1
  Bias factor toward G-protein, rKOR: 0.6
  Gi Emax rKOR: 101±2.3
  EC50: 0.064 nM
[14]
  Arrestin pEC50±SEM rKOR: 8.9±0.02
  EC50: 1.23 nM
  Arrestin Emax rKOR: 133±7.3
[15]
  EC50: 0.48 nM
  G-Protein activation pEC50 ± SEM: 9.3 ± 0.10
  G-Protein activation Emax % ± SEM: 108 ± 3.7%
[16]
  Arrestin recruitment pEC50 ± SEM: 7.5 ± 0.2
  EC50: 26.6 nM
  Arrestin recruitment Emax % ± SEM: 88 ± 6.8%
hDOR [17]
  EC50: 0.43 nM
  cAMP inhibition pEC50 ± SEM: 9.3 ± 0.03
  cAMP inhibition Emax % ± SEM: 106 ± 1%
hDOR [18]
  Arrestin recruitment pEC50 ± SEM: 7.8 ± 0.06
  EC50: 14.1 nM
  Arrestin recruitment Emax % ± SEM: 224 ± 5%

## O=C(N[C@@H]1C=CC2[C@H]3Cc4ccc(O)c5c4[C@@]2(CCN3CC2CC2)[C@H]1O5)c1cccc(I)c1 (stereo partly drawn) [MP1104, reference compound]
mMOR [1]
  Ki: 0.021 nM
mKOR [2]
  Ki: 0.0064 nM
mDOR [3]
  Ki: 0.08 ± 0.01 nM
mMOR [4]
  EC50: 0.21 ± 0.03 nM
  mMOR Emax: 103 ± 2%
mKOR [5]
  EC50: 0.027 ± 0.002 nM
  mKOR Emax: 104 ± 2%
mDOR [6]
  EC50: 0.41 ± 0.11 nM
  mDOR Emax: 88 ± 0%
hMOR [7]
  Bias factor toward G protein, hMOR: 0.57 and 0.6
  Gi Emax hMOR: 94±1
  Gi pEC50±SEM hMOR: 10.13±0.05
  EC50: 0.074 nM
hMOR [8]
  Arrestin pEC50±SEM hMOR: 9.24±0.08
  EC50: 0.573 nM
  Arrestin Emax hMOR: 90±2.28
hKOR [9]; cAMP inhibition
  Gi pEC50±SEM hKOR: 11.74±0.04
  Gi Emax hKOR: 107±1
hKOR [9]
  Bias factor toward G protein, hKOR: 0.18 and 0.2
hKOR [9]; cAMP inhibition, read-out: Gi EC50 hKOR
  EC50: 0.00184 nM
hKOR [10]
  Arrestin pEC50±SEM hKOR: 10.4±0.06
  EC50: 0.0394 nM
  Arrestin Emax hKOR: 117±2
[11]
  Bias factor toward G-protein, mMOR: 0.1
  Gi Emax mMOR: 62±2
  Gi pEC50±SEM mMOR: 9.2±0.11
  EC50: 0.66 nM
[12]
  Arrestin Emax mMOR: 53±1.6
  Arrestin pEC50±SEM mMOR: 9.55±0.12
  EC50: 0.285 nM
[13]
  Gi pEC50±SEM rKOR: 10.14±0.04
  Bias factor toward G-protein, rKOR: 0.23
  Gi Emax rKOR: 93±1
  EC50: 0.073 nM
[14]
  Arrestin pEC50±SEM rKOR: 8.94±0.07
  EC50: 1.14 nM
  Arrestin Emax rKOR: 89±2.6
[15]
  EC50: 1.4 nM
  G-Protein activation pEC50 ± SEM: 8.9 ± 0.06
  G-Protein activation Emax % ± SEM: 91 ± 1.7%
[16]
  Arrestin recruitment pEC50 ± SEM: 7.6 ± 0.11
  EC50: 26 nM
  Arrestin recruitment Emax % ± SEM: 40 ± 1.7%
hDOR [17]
  EC50: 0.4 nM
  cAMP inhibition pEC50 ± SEM: 9.4 ± 0.04
  cAMP inhibition Emax % ± SEM: 99 ± 1.1%
hDOR [18]
  Arrestin recruitment pEC50 ± SEM: 8.4 ± 0.06
  EC50: 3.73 nM
  Arrestin recruitment Emax % ± SEM: 189 ± 5.5%
